Earlier results on two compounds are cited in US6376005B2, “Antimicrobial composition for food and beverage products” (The Procter & Gamble Company, priority 1997, dated 2002).

In the case of `C[C@@H]1C/C=C/C=C/C=C/C=C/[C@H](O[C@@H]2O[C@H](C)[C@@H](O)[C@H](N)[C@@H]2O)C[C@@H]2O[C@](O)(C[C@@H](O)C[C@H]3O[C@@H]3/C=C/C(=O)O1)C[C@H](O)[C@H]2C(=O)O` [natamycin], the “effectiveness against yeasts such as Zygosaccharomyces bailii” value in the data set with Zygosaccharomyces bailii is “particularly effective”. Moreover, in the data set on bacteria, the effectiveness against bacteria result is reported as “not effective”. In the case of `C/C=C/C=C/C(=O)[O-].[K+]` [potassium sorbate], the “effectiveness against yeasts such as Zygosaccharomyces bailii” value in the data set on Zygosaccharomyces bailii is “not effective”.
